Usually IC50 stands for the point on the concentration scale where inhibition reaches its midpoint. Low values mean greater potency, high ones weaker potency. As usually defined, the Ki is the dissociation constant of the complex between target and ligand, obtained from inhibition or displacement. Low readings indicate higher affinity, high ones lower affinity.

Experiment [1] concerns CD69 by B lymphocytes in human whole blood activated with goat F(ab')2 anti-human IgM. Briefly: CD69 Whole Blood Assay (CD69 Hu Blood FACS). The experiment is classed as cell-based. The conditions noted are these: Lymphocyte, CD69 positive of CD20 positive cells. As to the method:
CD69 is a type II C-type lectin involved in lymphocyte migration and cytokine secretion.
Human blood is obtained from healthy volunteers, with the following restrictions: 1 week drug-free, non-smokers. Blood (approximately 20 mls to test 8 compounds) is collected by venipuncture into Vacutainer® (Becton, Dickinson and Co.) tubes with sodium heparin.
Solutions of Formula I compounds at 10 mM in DMSO are diluted 1:10 in 100% DMSO, then are diluted by three-fold serial dilutions in 100% DMSO for a ten point dose-response curve. The compounds are further diluted 1:10 in PBS and then an aliquot of 5.5 μl of each compound is added in duplicate to a 2 ml 96-well plate; 5.5 μl of 10% DMSO in PBS is added as control and no-stimulus wells. Human whole blood—HWB (100 μl) is added to each well. After mixing the plates are incubated at 37° C., 5% CO2, 100% humidity for 30 minutes. Goat F(ab′)2 anti-human IgM (10 μl of a 500 μg/ml solution, 50 μg/ml final) is added to each well (except the no-stimulus wells) with mixing and the plates are incubated for an additional 20 hours. At the end of the 20 hour incubation, samples are incubated with fluorescent labeled antibodies for 30 minutes, at 37° C., 5% CO2, 100% humidity. Include induced control, unstained and single stains for compensation adjustments and initial voltage settings. Samples are then lysed with PharM Lyse™ (BD Biosciences Pharmingen) according to the manufacturer's instructions. Samples are then transferred to a 96 well plate suitable to be run on the BD Biosciences HTS 96 well system on the LSRII machine. Data acquired and Mean Fluorescence Intensity values were obtained using BD Biosciences DIVA Software. Results are initially analyzed by FACS analysis software (Flow Jo).

For experiment [2], the target named is T1, full length human wildtype Btk (Homo sapiens, UniProt Q06187).
T1 construct: V5 (C); 6xHis (C); made in house; host or cells: Sf9 insect cells (baculovirus, pFastBac)
Briefly: Biochemical Btk Assay (BTK LC3K). As to the method: A generalized procedure for a standard biochemical Btk, Kinase Assay that can be used to test Formula I compounds is as follows. A master mix minus Btk enzyme is prepared containing 1× Cell Signaling kinase buffer (25 mM Tris-HCl, pH 7.5, 5 mM beta-glycerophosphate, 2 mM dithiothreitol, 0.1 mM Na3VO4, 10 mM MgCl2), 0.5 μM Promega PTK Biotinylated peptide substrate 2, and 0.01% BSA. A master mix plus Btk enzyme is prepared containing 1× Cell Signaling kinase buffer, 0.5 μM (micromolar) PTK Biotinylated peptide substrate 2, 0.01% BSA, and 100 ng/well (0.06 mU/well) Btk enzyme. Btk enzyme is prepared as follows: full length human wildtype Btk (accession number NM-000061) with a C-terminal V5 and 6×His tag was subcloned into pFastBac® vector (Invitrogen/Life Technologies) for making baculovirus carrying this epitope-tagged Btk. […] Passage 3 virus is used to infect Sf9 cells to overexpress the recombinant Btk protein. The Btk protein is then purified to homogeneity using Ni-NTA column. […] A solution of 200 μM ATP is prepared in water and adjusted to pH 7.4 with 1N NaOH. A quantity of 1.25 μL (microliter) of compounds in 5% DMSO is transferred to a 96-well ½ area Costar polystyrene plate. Compounds are tested singly and with an 11-point dose-responsive curve (starting concentration is 10 μM; 1:2 dilution). A quantity of 18.75 μL of master mix minus enzyme (as a negative control) and master mix plus enzyme is transferred to appropriate wells in 96-well ½ area costar polystyrene plate. 5 μL of 200 μM ATP is added to that mixture in the 96-well ½ area Costar polystyrene plate for final ATP concentration of 40 μM. The reaction is allowed to incubate for 1 hour at room temperature. The reaction is stopped with Perkin Elmer 1× detection buffer containing 30 mM EDTA, 20 nM SA-APC, and 1 nM PT66 Ab. […] IC50 values are subsequently calculated. Alternatively, the Lanthascreen assay can be used to evaluate Btk activity through quantification of its phosphorylated peptide product. The FRET (Fluorescence Resonance Energy Transfer) that occurs between the fluorescein on the peptide product and the terbium on the detection antibody decreases with the addition of inhibitors of Btk that reduce the phosphorylation of the peptide. In a final reaction volume of 25 uL, Btk (h) (0.1 ng/25 ul reaction) is incubated with 50 mM Hepes pH 7.5, 10 mM MgCl2, 2 mM MnCl2, 2 mM DTT, 0.2 mM NaVO4, 0.01% BSA, and 0.4 uM fluorescein poly-GAT. […] After incubation for 60 minutes at room temperature, the reaction is stopped by the addition of a final concentration of 2 nM Tb-PY20 detection antibody in 60 mM EDTA for 30 minutes at room temperature.

Some results are limits rather than exact numbers.

T1 sequence (Q06187 whole entry): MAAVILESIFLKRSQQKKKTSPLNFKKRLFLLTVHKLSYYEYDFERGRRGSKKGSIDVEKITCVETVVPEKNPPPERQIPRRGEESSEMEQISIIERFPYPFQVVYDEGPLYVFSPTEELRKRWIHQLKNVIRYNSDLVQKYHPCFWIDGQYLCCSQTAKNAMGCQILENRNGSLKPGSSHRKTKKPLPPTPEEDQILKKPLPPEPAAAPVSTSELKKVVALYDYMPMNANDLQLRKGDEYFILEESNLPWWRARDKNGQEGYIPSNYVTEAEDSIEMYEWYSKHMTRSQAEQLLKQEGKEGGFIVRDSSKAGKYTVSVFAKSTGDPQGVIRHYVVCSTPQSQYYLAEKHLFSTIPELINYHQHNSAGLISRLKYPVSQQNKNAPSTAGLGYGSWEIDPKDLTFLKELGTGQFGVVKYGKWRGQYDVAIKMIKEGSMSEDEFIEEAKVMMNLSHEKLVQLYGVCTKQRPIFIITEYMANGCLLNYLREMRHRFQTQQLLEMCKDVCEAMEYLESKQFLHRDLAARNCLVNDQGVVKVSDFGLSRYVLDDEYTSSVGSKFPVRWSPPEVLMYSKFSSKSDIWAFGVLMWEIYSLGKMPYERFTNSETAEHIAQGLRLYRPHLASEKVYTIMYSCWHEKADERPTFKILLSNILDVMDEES

As for `Cc1cc(C(=O)Nc2cc(-c3ccnc(N4CCn5c(cc6c5CC(C)(C)C6)C4=O)c3CO)cn(C)c2=O)n[nH]1` [Compound 111, N-[5-[2-(7,7-dimethyl-4-oxo-1,2,6,8-tetrahydrocyclopenta[3,4]pyrrolo[3,5-b]pyrazin-3-yl)-3-(hydroxymethyl)-4-pyridyl]-1-methyl-2-oxo-3-pyridyl]-5-methyl-1H-pyrazole-3-carboxamide], in experiment [1] (Table 1, anti-IgM stimulation), the half-inhibitory concentration (IC50) is more than 5400 nM. Moreover, in experiment [2] (Table 1), the Ki was more than 500 nM.
The matching figures for `Cc1cc(C(=O)Nc2cc(-c3ccnc(N4CCn5c(cc6c5CC(C)(C)C6)C4=O)c3CO)cn(C)c2=O)nn1C` [Compound 112, N-[5-[2-(7,7-dimethyl-4-oxo-1,2,6,8-tetrahydrocyclopenta[3,4]pyrrolo[3,5-b]pyrazin-3-yl)-3-(hydroxymethyl)-4-pyridyl]-1-methyl-2-oxo-3-pyridyl]-1,5-dimethyl-pyrazole-3-carboxamide]: more than 5800 nM and more than 500 nM.
`Cn1cc(-c2ccnc(N3CCn4c(cc5c4CC(C)(C)C5)C3=O)c2CO)cc(NC(=O)c2ccc(N3CCCC3)nc2)c1=O` [Compound 113, N-[5-[2-(7,7-dimethyl-4-oxo-1,2,6,8-tetrahydrocyclopenta[3,4]pyrrolo[3,5-b]pyrazin-3-yl)-3-(hydroxymethyl)-4-pyridyl]-1-methyl-2-oxo-3-pyridyl]-6-pyrrolidin-1-yl-pyridine-3-carboxamide]: in experiment [1] (Table 1, anti-IgM stimulation), the 50% inhibitory concentration (IC50) was more than 3500 nM. This compound also showed an inhibition constant Ki in experiment [2] (Table 1) of 77 nM.
Taken in the same sequence, the figures for `Cn1cc(-c2ccnc(N3CCn4c(cc5c4CC(C)(C)C5)C3=O)c2CO)cc(NC(=O)c2ccccc2)c1=O` [Compound 114, N-[5-[2-(7,7-dimethyl-4-oxo-1,2,6,8-tetrahydrocyclopenta[3,4]pyrrolo[3,5-b]pyrazin-3-yl)-3-(hydroxymethyl)-4-pyridyl]-1-methyl-2-oxo-3-pyridyl]benzamide] were more than 5400 nM and 236 nM.
For the compound `Cn1cc(-c2ccnc(N3CCn4c(cc5c4CC(C)(C)C5)C3=O)c2CO)cc(NC(=O)c2cnco2)c1=O` [Compound 115, N-[5-[2-(7,7-dimethyl-4-oxo-1,2,6,8-tetrahydrocyclopenta[3,4]pyrrolo[3,5-b]pyrazin-3-yl)-3-(hydroxymethyl)-4-pyridyl]-1-methyl-2-oxo-3-pyridyl]oxazole-5-carboxamide], in experiment [1] (Table 1, anti-IgM stimulation), the IC50 was more than 3200 nM. For the same compound, the Ki in experiment [2] (Table 1) was more than 500 nM.
In turn, `Cn1cc(-c2ccnc(N3CCn4c(cc5c4CC(C)(C)C5)C3=O)c2CO)cc(NC(=O)C2CC2(F)F)c1=O` (stereo not drawn) [Compound 116, N-[5-[2-(7,7-dimethyl-4-oxo-1,2,6,8-tetrahydrocyclopenta[3,4]pyrrolo[3,5-b]pyrazin-3-yl)-3-(hydroxymethyl)-4-pyridyl]-1-methyl-2-oxo-3-pyridyl]-2,2-difluoro-cyclopropanecarboxamide] showed a 50% inhibitory concentration (IC50) in experiment [1] (Table 1, anti-IgM stimulation) of 988 nM. Affinity in experiment [2] (Table 1) was put at a Ki of 34.8 nM.
Taken in the same sequence, the figures for `CCC(=O)Nc1cc(-c2ccnc(-n3ncc4cc(C(C)(C)C)cc(F)c4c3=O)c2CO)cn(C)c1=O` [Compound 126, N-[5-[2-(6-tert-butyl-8-fluoro-1-oxo-phthalazin-2-yl)-3-(hydroxymethyl)-4-pyridyl]-1-methyl-2-oxo-3-pyridyl]propanamide] were 527 nM and 7.01 nM.
Taken in the same sequence, the figures for `CC(=O)Nc1cc(-c2ccnc(-n3ncc4cc(C(C)(C)C)cc(F)c4c3=O)c2CO)cn(C)c1=O` [Compound 127, N-[5-[2-(6-tert-butyl-8-fluoro-1-oxo-phthalazin-2-yl)-3-(hydroxymethyl)-4-pyridyl]-1-methyl-2-oxo-3-pyridyl]acetamide] were 335 nM and 10.8 nM.
In turn, `Cn1cc(-c2cccc(N3CCn4c(cc5c4CC(C)(C)C5)C3=O)c2CO)cc(NC(=O)C2CC2)c1=O` [Compound 129, N-[5-[3-(7,7-dimethyl-4-oxo-1,2,6,8-tetrahydrocyclopenta[3,4]pyrrolo[3,5-b]pyrazin-3-yl)-2-(hydroxymethyl)phenyl]-1-methyl-2-oxo-3-pyridyl]cyclopropanecarboxamide] showed an IC50 in experiment [1] (Table 2, anti-IgM stimulation) of 51.2 nM. The inhibition constant Ki in experiment [2] (Table 2) turned out to be 3.78 nM.
The matching figures for `Cn1cc(-c2cc(F)cc(N3CCn4c(cc5c4CC(C)(C)C5)C3=O)c2CO)cc(NC(=O)C2CC2)c1=O` [Compound 130, N-[5-[3-(7,7-dimethyl-4-oxo-1,2,6,8-tetrahydrocyclopenta[3,4]pyrrolo[3,5-b]pyrazin-3-yl)-5-fluoro-2-(hydroxymethyl)phenyl]-1-methyl-2-oxo-3-pyridyl]cyclopropanecarboxamide]: 35 nM and 1.29 nM.
Take `Cn1cc(-c2ccnc(N3CCc4c(sc5c4CC(C)(C)C5)C3=O)c2CO)cc(NC(=O)C2CC2)c1=O` [Compound 131, N-[5-[2-(7,7-dimethyl-4-oxo-1,2,6,8-tetrahydrocyclopenta[3,4]thieno[1,3-c]pyridin-3-yl)-3-(hydroxymethyl)-4-pyridyl]-1-methyl-2-oxo-3-pyridyl]cyclopropanecarboxamide]: half-maximal inhibition in experiment [1] (Table 2, anti-IgM stimulation) (IC50) required 240 nM. Further, the inhibitory constant (Ki) in experiment [2] (Table 2) was determined as 7.06 nM.
Taken in the same sequence, the figures for `Cn1cc(-c2ccnc(N3CCc4c(cc5n4CC(C)(C)C5)C3=O)c2CO)cc(NC(=O)C2CC2)c1=O` [Compound 137, N-[5-[2-(7,7-dimethyl-4-oxo-1,2,6,8-tetrahydropyrido[3,4-b]pyrrolizin-3-yl)-3-(hydroxymethyl)-4-pyridyl]-1-methyl-2-oxo-3-pyridyl]cyclopropanecarboxamide] were 616 nM and 28.5 nM.
Compound `C[C@@H]1C[C@H]1C(=O)Nc1cc(-c2ccnc(N3CCn4c(cc5c4CC(C)(C)C5)C3=O)c2CO)cn(C)c1=O` [Compound 138, (1R,2R)—N-[5-[2-(7,7-dimethyl-4-oxo-1,2,6,8-tetrahydrocyclopenta[3,4]pyrrolo[3,5-b]pyrazin-3-yl)-3-(hydroxymethyl)-4-pyridyl]-1-methyl-2-oxo-3-pyridyl]-2-methyl-cyclopropanecarboxamide] showed a 50% inhibitory concentration (IC50) in experiment [1] (Table 2, anti-IgM stimulation) of 2600 nM. The affinity in experiment [2] (Table 2), expressed as Ki, was 43.8 nM.
The matching figures for `Cn1cc(-c2cccc(N3CCc4c(cc5n4CCCC5)C3=O)c2CO)cc(NC(=O)C2CC2)c1=O` [Compound 139, N-[5-[2-(hydroxymethyl)-3-(1-oxo-3,4,6,7,8,9-hexahydropyrido[3,4-b]indolizin-2-yl)phenyl]-1-methyl-2-oxo-3-pyridyl]cyclopropanecarboxamide]: 689 nM and 7.8 nM.
Taken in the same sequence, the figures for `Cn1cc(-c2cccc(N3CCc4c(cc5n4CC(C)(C)C5)C3=O)c2CO)cc(NC(=O)C2CC2)c1=O` [Compound 142, N-[5-[3-(7,7-dimethyl-4-oxo-1,2,6,8-tetrahydropyrido[3,4-b]pyrrolizin-3-yl)-2-(hydroxymethyl)phenyl]-1-methyl-2-oxo-3-pyridyl]cyclopropanecarboxamide] were 70 nM and 1.8 nM.

These data come from patent US9326985B2, “Heteroaryl pyridone and aza-pyridone amide compounds” (Genentech, Inc., priority 2013, dated 2016).
